Data as given in patent US5858992A, “Non-reducing saccharides, their preparation and use” (Kabushiki Kaisha Hayashibara Seibutsu Kagaku Kenkyujo, priority 1995, dated 1999).

What was measured:
[1] = test system: Bifidobacterium longum JCM 1217; experiment: Assimilation test by intestinal microorganism; format: cell-based; settings: 0.5 w/v % saccharide in PYF broth, 37° C., 96 hours; free of sugar: -
[2] = test system: Clostridium perfringens JCM 3816; format: cell-based; settings: 0.5 w/v % saccharide in PYF broth, 37° C., 96 hours; free of sugar: -
[3] = test system: Peptostreptococcus prevotii ATCC 9321; experiment: Assimilation test by intestinal microorganism; format: cell-based; settings: 0.5 w/v % saccharide in PYF broth, 37° C., 96 hours; free of sugar: -
Acute toxicity test = format: in vivo; settings: oral, mice; for LD50: mouse, in vivo
From the text: As a result, no mouse died even when administered with a highest possible dose. This means that the LD50 is 50 g/kg mouse or more and concludes that it is extremely low in toxicity.

Pancreatic juice amylase = biological target: T1, Pancreatic juice amylase (Homo sapiens, UniProt P04746); experiment: in vitro
T1 sequence (P04746 16-511): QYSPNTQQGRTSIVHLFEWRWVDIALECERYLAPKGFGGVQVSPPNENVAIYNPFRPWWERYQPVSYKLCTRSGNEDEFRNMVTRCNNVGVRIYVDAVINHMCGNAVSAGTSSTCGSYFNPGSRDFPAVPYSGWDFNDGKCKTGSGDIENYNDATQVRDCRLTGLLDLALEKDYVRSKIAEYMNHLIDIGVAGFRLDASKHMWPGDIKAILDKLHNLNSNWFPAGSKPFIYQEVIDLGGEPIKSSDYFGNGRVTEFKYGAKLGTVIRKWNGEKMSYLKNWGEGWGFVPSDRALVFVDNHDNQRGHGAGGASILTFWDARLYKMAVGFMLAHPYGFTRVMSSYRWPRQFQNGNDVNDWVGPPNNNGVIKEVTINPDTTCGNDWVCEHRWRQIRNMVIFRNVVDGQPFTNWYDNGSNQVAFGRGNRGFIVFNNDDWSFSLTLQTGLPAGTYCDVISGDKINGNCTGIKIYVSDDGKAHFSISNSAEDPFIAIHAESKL

[4] = test system: Clostridium butyricum JCM 1391; format: cell-based; settings: 0.5 w/v % saccharide in PYF broth, 37° C., 96 hours; free of sugar: -
[5] = test system: Streptococcus sobrinus ATCC 27351; experiment: Acid formation by dental caries-inducing microorganisms; settings: for pH at each fermentation time (min): living wet cells, 0.02M saccharide, Stephen buffer pH 7.0, 37° C.
[6] = Maillard reaction (coloration with glycine); format: physicochemical; settings: 10 w/v % saccharide, one w/v % glycine, 50 mM phosphate buffer pH 7.0, 100° C. for 90 min, 1-cm light-path cell
[7] = test system: Bifidobacterium adolescentis JCM 1275; experiment: Assimilation test by intestinal microorganism; format: cell-based; settings: 0.5 w/v % saccharide in PYF broth, 37° C., 96 hours; free of sugar: -
[8] = test system: Bifidobacterium animalis JCM 1190; experiment: Assimilation test by intestinal microorganism; format: cell-based; settings: 0.5 w/v % saccharide in PYF broth, 37° C., 96 hours; free of sugar: -
[9] = test system: Bifidobacterium bifidum JCM 1255; experiment: Assimilation test by intestinal microorganism; format: cell-based; settings: 0.5 w/v % saccharide in PYF broth, 37° C., 96 hours; free of sugar: -
[10] = test system: Bifidobacterium breve JCM 1192; experiment: Assimilation test by intestinal microorganism; format: cell-based; settings: 0.5 w/v % saccharide in PYF broth, 37° C., 96 hours; free of sugar: -
[11] = test system: Bifidobacterium infantis JCM 1222; experiment: Assimilation test by intestinal microorganism; format: cell-based; settings: 0.5 w/v % saccharide in PYF broth, 37° C., 96 hours; free of sugar: -
[12] = test system: Lactobacillus fermentum IFO 3959; experiment: Assimilation test by intestinal microorganism; format: cell-based; settings: 0.5 w/v % saccharide in PYF broth, 37° C., 96 hours; free of sugar: -
[13] = test system: Lactobacillus plantarum IFO 3070; experiment: Assimilation test by intestinal microorganism; format: cell-based; settings: 0.5 w/v % saccharide in PYF broth, 37° C., 96 hours; free of sugar: -
[14] = test system: Eubacterium aerofaciens ATCC 25986; experiment: Assimilation test by intestinal microorganism; format: cell-based; settings: 0.5 w/v % saccharide in PYF broth, 37° C., 96 hours; free of sugar: -
[15] = test system: Bacteroides distasonis JCM 5825; experiment: Assimilation test by intestinal microorganism; format: cell-based; settings: 0.5 w/v % saccharide in PYF broth, 37° C., 96 hours; free of sugar: -
[16] = test system: Bacteroides vulgatus JCM 5826; experiment: Assimilation test by intestinal microorganism; format: cell-based; settings: 0.5 w/v % saccharide in PYF broth, 37° C., 96 hours; free of sugar: -
[17] = test system: Bacteroides uniformis JCM 5828; experiment: Assimilation test by intestinal microorganism; format: cell-based; settings: 0.5 w/v % saccharide in PYF broth, 37° C., 96 hours; free of sugar: -
[18] = test system: Clostridium ramosum JCM 1298; experiment: Assimilation test by intestinal microorganism; format: cell-based; settings: 0.5 w/v % saccharide in PYF broth, 37° C., 96 hours; free of sugar: -
[19] = test system: Streptococcus faecalis IAM 10065; experiment: Assimilation test by intestinal microorganism; format: cell-based; settings: 0.5 w/v % saccharide in PYF broth, 37° C., 96 hours; free of sugar: -
[20] = test system: Escherichia coli IFO 3301; experiment: Assimilation test by intestinal microorganism; format: cell-based; settings: 0.5 w/v % saccharide in PYF broth, 37° C., 96 hours; free of sugar: -
Salivary amylase = biological target: T2, Salivary amylase (Homo sapiens, UniProt P0DUB6); experiment: in vitro
T2 sequence (P0DUB6 16-511): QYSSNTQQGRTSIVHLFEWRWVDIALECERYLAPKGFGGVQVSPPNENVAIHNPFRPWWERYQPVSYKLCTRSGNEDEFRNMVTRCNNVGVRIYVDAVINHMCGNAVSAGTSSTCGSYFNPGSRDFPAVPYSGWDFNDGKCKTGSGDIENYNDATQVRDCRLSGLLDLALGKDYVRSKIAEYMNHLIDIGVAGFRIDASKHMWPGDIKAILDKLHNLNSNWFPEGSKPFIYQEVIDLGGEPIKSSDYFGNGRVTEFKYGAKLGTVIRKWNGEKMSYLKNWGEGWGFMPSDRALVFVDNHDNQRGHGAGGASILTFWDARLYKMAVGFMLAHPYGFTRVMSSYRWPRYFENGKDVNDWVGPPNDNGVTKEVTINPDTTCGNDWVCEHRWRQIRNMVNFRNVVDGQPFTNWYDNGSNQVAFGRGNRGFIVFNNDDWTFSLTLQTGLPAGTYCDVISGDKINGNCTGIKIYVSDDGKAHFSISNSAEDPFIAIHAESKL

in vitro = settings: gastric acid

OC[C@H]1O[C@H](OC[C@H]2O[C@H](O[C@H]3O[C@H](CO)[C@@H](O)[C@H](O)[C@H]3O)[C@H](O)[C@@H](O)[C@@H]2O)[C@H](O)[C@@H](O)[C@@H]1O [O-α-D-glucopyranosyl -(1→6)-α-D-glucopyranosyl α-D-glucopyranoside]
Judgement of assimilation (turbidity at 750 nm, ×5) [1]: +++ (0.3 or higher)
Judgement of assimilation (turbidity at 750 nm, ×5) [2]: + (0.15 or higher but less than 0.2)
Judgement of assimilation (turbidity at 750 nm, ×5) [3]: ± (0.1 or higher but less than 0.15)
LD50 (Acute toxicity test): ≥ 50000 mg/kg
Mortality at a highest possible dose (Acute toxicity test): no mouse died
metabolised (Pancreatic juice amylase): 0.5%

OC[C@H]1O[C@H](OC[C@H]2O[C@H](O[C@H]3O[C@H](CO[C@H]4O[C@H](CO)[C@@H](O)[C@H](O)[C@H]4O)[C@@H](O)[C@H](O)[C@H]3O)[C@H](O)[C@@H](O)[C@@H]2O)[C@H](O)[C@@H](O)[C@@H]1O [α-Isomaltosyl α-isomaltoside, O-α-D-glucopyranosyl -(1→6)-α-D-glucopyranosyl-O-α-D-glucopyranosyl-(1→6) -α-D-glucopyranoside]
Judgement of assimilation (turbidity at 750 nm, ×5) [1]: +++ (0.3 or higher)
Judgement of assimilation (turbidity at 750 nm, ×5) [4]: +++ (0.3 or higher)
Judgement of assimilation (turbidity at 750 nm, ×5) [2]: - (Less than 0.1)
Judgement of assimilation (turbidity at 750 nm, ×5) [3]: ± (0.1 or higher but less than 0.15)
LD50 (Acute toxicity test): ≥ 50000 mg/kg
metabolised (Pancreatic juice amylase): 0.3%
Solubility in solvent (Solubility in solvent; chloroform and ethyl acetate): Insoluble
Solubility in solvent (Solubility in solvent; methanol and ethanol): Hardly soluble

OC[C@H]1O[C@@](CO)(O[C@H]2O[C@H](CO)[C@@H](O)[C@H](O)[C@H]2O)[C@@H](O)[C@@H]1O [Sucrose, reference compound]
pH reduction / acid fermentation, in words [5]: rapid
pH at each fermentation time (min) ([5]; 0 min): 7.0
pH at each fermentation time (min) ([5]; 5 min): 4.3
pH at each fermentation time (min) ([5]; 15 min): 4.1
pH at each fermentation time (min) ([5]; 30 min): 4.0
pH at each fermentation time (min) ([5]; 60 min): 4.0
pH at each fermentation time (min) ([5]; 90 min): 4.0

OC[C@H]1O[C@H](OC[C@H]2O[C@H](OC[C@H]3O[C@H](O[C@H]4O[C@H](CO)[C@@H](O)[C@H](O)[C@H]4O)[C@H](O)[C@@H](O)[C@@H]3O)[C@H](O)[C@@H](O)[C@@H]2O)[C@H](O)[C@@H](O)[C@@H]1O [α-Isomaltotriosyl α-glucoside, O-α-D-glucopyranosyl-(1→6)-O-α-D-glucopyranosyl-(1→6) α-D-glucopyranosyl α-D-glucopyranoside]
Judgement of assimilation (turbidity at 750 nm, ×5) [4]: +++ (0.3 or higher)
Judgement of assimilation (turbidity at 750 nm, ×5) [3]: ± (0.1 or higher but less than 0.15)
LD50 (Acute toxicity test): ≥ 50000 mg/kg
metabolised (Pancreatic juice amylase): 0.5%

OC[C@H]1O[C@H](OC[C@H]2O[C@H](OC[C@H]3OC(O)[C@H](O)[C@@H](O)[C@@H]3O)[C@H](O)[C@@H](O)[C@@H]2O)[C@H](O)[C@@H](O)[C@@H]1O (stereo partly drawn) [Isomaltotriose, isomaltotriose, reference compound]
Coloration degree (at a wavelength of 480 nm) [6]: 0.642

O=C[C@H](O)[C@@H](O)[C@H](O)[C@H](O)CO [glucose, reference compound]
Judgement of assimilation (turbidity at 750 nm, ×5) [7]: +++ (0.3 or higher)
Judgement of assimilation (turbidity at 750 nm, ×5) [8]: +++ (0.3 or higher)
Judgement of assimilation (turbidity at 750 nm, ×5) [9]: ++ (0.2 or higher but less than 0.3)
Judgement of assimilation (turbidity at 750 nm, ×5) [10]: ++ (0.2 or higher but less than 0.3)
Judgement of assimilation (turbidity at 750 nm, ×5) [11]: ++ (0.2 or higher but less than 0.3)
Judgement of assimilation (turbidity at 750 nm, ×5) [1]: +++ (0.3 or higher)
Judgement of assimilation (turbidity at 750 nm, ×5) [12]: ++ (0.2 or higher but less than 0.3)
Judgement of assimilation (turbidity at 750 nm, ×5) [13]: ++ (0.2 or higher but less than 0.3)
Judgement of assimilation (turbidity at 750 nm, ×5) [14]: +++ (0.3 or higher)
Judgement of assimilation (turbidity at 750 nm, ×5) [15]: ++ (0.2 or higher but less than 0.3)
Judgement of assimilation (turbidity at 750 nm, ×5) [16]: + (0.15 or higher but less than 0.2)
Judgement of assimilation (turbidity at 750 nm, ×5) [17]: ++ (0.2 or higher but less than 0.3)
Judgement of assimilation (turbidity at 750 nm, ×5) [4]: +++ (0.3 or higher)
Judgement of assimilation (turbidity at 750 nm, ×5) [2]: +++ (0.3 or higher)
Judgement of assimilation (turbidity at 750 nm, ×5) [18]: + (0.15 or higher but less than 0.2)
Judgement of assimilation (turbidity at 750 nm, ×5) [19]: ++ (0.2 or higher but less than 0.3)
Judgement of assimilation (turbidity at 750 nm, ×5) [3]: + (0.15 or higher but less than 0.2)
Judgement of assimilation (turbidity at 750 nm, ×5) [20]: + (0.15 or higher but less than 0.2)

OC[C@H]1O[C@H](OC[C@H]2O[C@H](OC[C@H]3O[C@H](OC[C@H]4OC(O)[C@H](O)[C@@H](O)[C@@H]4O)[C@H](O)[C@@H](O)[C@@H]3O)[C@H](O)[C@@H](O)[C@@H]2O)[C@H](O)[C@@H](O)[C@@H]1O (stereo partly drawn) [Isomaltotetraose, isomaltotetraose, reference compound]
Coloration degree (at a wavelength of 480 nm) [6]: 0.495

OC[C@H]1O[C@H](O[C@H]2[C@H](O)[C@@H](O)C(O)O[C@@H]2CO)[C@H](O)[C@@H](O)[C@@H]1O (mixture of isomers) [Maltose, reference compound]
metabolised (Salivary amylase): 0%
degraded (in vitro): 0%
metabolised (Pancreatic juice amylase): 0.2%
